Test results as given in the NIST ThermoML archive (doi:10.1021/je101012n).
± gives the expanded uncertainty stated by the source.

Experiment: mn = molality of the nth substance listed, in mol/kg
Conditions: 101 kPa, Liquid, Alternating current cell with electrodes

[Cl-].[Cl-].[Mg+2] [magnesium chloride] + O
electrical conductivity [S/m]
Conditions | 278.15 K | 283.15 K | 298.15 K | 308.15 K | 318.15 K | 343.15 K | 363.15 K
m1 = 0.000119 | 0.001861 ± 7e-06 | 0.002134 ± 9e-06 | 0.002989 ± 1.2e-05 | 0.003553 ± 1.4e-05 | 0.004209 ± 1.7e-05 | 0.006086 ± 2.4e-05 | 0.00764 ± 3e-05
m1 = 0.000984 | 0.01481 ± 6e-05 | 0.017 ± 0.0001 | 0.02432 ± 0.0001 | 0.02937 ± 0.00012 | 0.03478 ± 0.00014 | 0.0501 ± 0.0002 | 0.06265 ± 0.00025
m1 = 0.01137 | 0.1537 ± 0.0006 | 0.176 ± 0.0007 | 0.2503 ± 0.001 | 0.302 ± 0.0012 | 0.3534 ± 0.0014 | 0.5068 ± 0.002 | 0.6347 ± 0.0025
m1 = 0.09942 | 1.1 ± 0.0044 | 1.256 ± 0.005 | 1.772 ± 0.0071 | 2.137 ± 0.0085 | 2.515 ± 0.01 | 3.575 ± 0.014 | 4.424 ± 0.018
m1 = 0.3609 | 3.449 ± 0.014 | 3.927 ± 0.016 | 5.491 ± 0.022 | 6.606 ± 0.026 | 7.753 ± 0.031 | 10.94 ± 0.044 | 13.6 ± 0.054

O=[N+]([O-])[O-].O=[N+]([O-])[O-].[Mg+2] [magnesium nitrate] + O
electrical conductivity [S/m]
Conditions | 278.1 K | 283.1 K | 298.15 K | 308.15 K | 318.15 K | 343.15 K | 363.15 K
m1 = 9.8e-05 | 0.007334 ± 2.9e-05 | 0.008166 ± 3.3e-05 | 0.01072 ± 4e-05 | 0.01244 ± 5e-05 | 0.01407 ± 6e-05 | 0.01831 ± 7e-05 | 0.02164 ± 9e-05
m1 = 0.000976 | 0.01971 ± 8e-05 | 0.02238 ± 9e-05 | 0.03083 ± 0.00012 | 0.03667 ± 0.00015 | 0.04272 ± 0.00017 | 0.0591 ± 0.0002 | 0.07277 ± 0.00029
m1 = 0.00937 | 0.1291 ± 0.0005 | 0.1472 ± 0.0006 | 0.2073 ± 0.0008 | 0.2488 ± 0.001 | 0.2927 ± 0.0012 | 0.4146 ± 0.0017 | 0.5165 ± 0.0021
m1 = 0.09844 | 1.079 ± 0.0043 | 1.228 ± 0.0049 | 1.724 ± 0.0069 | 2.078 ± 0.0083 | 2.442 ± 0.0098 | 3.471 ± 0.014 | 4.261 ± 0.017
m1 = 0.3271 | 3.129 ± 0.013 | 3.538 ± 0.014 | 4.926 ± 0.02 | 5.922 ± 0.024 | 6.968 ± 0.028 | 9.861 ± 0.039 | 11.62 ± 0.046
